Data set [1] can be described thus: Partition coefficient, log P of the compound. In kind it is physicochemical. The note with it: octanol/water.
A short description of data set [2]: Lipophilicity, log D of the compound at pH 7.4. In kind it is physicochemical. The settings on record: buffer.

The source of these data is ChEMBL document CHEMBL2424535, “Fragment-based discovery of focal adhesion kinase inhibitors” (Bioorg Med Chem Lett, 2013).

What is called logP is the decadic logarithm of the partition coefficient of the neutral form, usually between octanol and water. One may read the logD as the decadic logarithm of the distribution of all forms, ionised or not, between an organic phase and buffer at a given pH. Turning to `Cc1ccc(-n2nc(C(C)(C)C)cc2NC(=O)Nc2ccc(-n3cnc4c(N)ncnc43)cc2)cc1`, in data set [1] (read-out: logP), the logP is 3.98. Also, the logD in data set [2] (read-out: logD) is 4.05.

With `Cc1ccc(-n2nc(C(C)(C)C)cc2NC(=O)Nc2ccc(-n3cnc(C)c3)cc2)cc1`, the log partition coefficient (logP) in data set [1] (read-out: logP) was determined as 4.83. Moreover, the logD in data set [2] (read-out: logD) stood at 4.08.

Turning to `Cc1ccc(-n2nc(C(C)(C)C)cc2NC(=O)Nc2ccc(-n3ccnc3)cc2)cc1`, the logP in data set [1] (read-out: logP) was found to be 4.35. For the same compound, in data set [2] (read-out: logD), the logD amounted to 3.85.

On to `Cc1ccc(-n2nc(C(C)(C)C)cc2NC(=O)Nc2ccc(-n3cnnc3)cc2)cc1`, for which the logP in data set [1] (read-out: logP) is 4.07. Besides, the logD in data set [2] (read-out: logD) was determined as 3.94.

The compound `Cc1ccc(-n2nc(C(C)(C)C)cc2NC(=O)Nc2ccc(-c3nnc(S)n3C)cc2)cc1` yielded a log partition coefficient (logP) in data set [1] of 2.86. Moreover, the logD in data set [2] was 3.89.

As to `Cc1ccc(-n2nc(C(C)(C)C)cc2NC(=O)Nc2ccc(-n3cnc(Cl)c3Cl)cc2)cc1`, the log partition coefficient (logP) in data set [1] (read-out: logP) is over 5.4. The logD in data set [2] (read-out: logD) was 3.96.

As for `Cc1ccc(-n2nc(C(C)(C)C)cc2NC(=O)Nc2ccc(-n3cncc3C)cc2)cc1`, the logP in data set [1] (read-out: logP) was 4.6. For the same compound, the logD in data set [2] (read-out: logD) stood at 4.33.

In the case of `Cc1ccc(-n2nc(C(C)(C)C)cc2NC(=O)Nc2ccc(-c3csnn3)cc2)cc1`, the logP in data set [1] (read-out: logP) came to 5.15. Also, the logD in data set [2] (read-out: logD) turned out to be 4.58.

For `Cc1ccc(-n2nc(C(C)(C)C)cc2NC(=O)Nc2ccc(-n3nnnc3C)cc2)cc1`, in data set [1] (read-out: logP), the logP came out at 3.86. The logD in data set [2] (read-out: logD) came to 3.81.

For the compound `Cc1ccc(-n2nc(C(C)(C)C)cc2NC(=O)Nc2ccc(-c3cnco3)cc2)cc1`, the logP in data set [1] (read-out: logP) was determined as 4.96. Further, the logD in data set [2] (read-out: logD) came out at 4.49.

`Cc1ccc(-n2nc(C(C)(C)C)cc2NC(=O)Nc2ccc(-n3cnnn3)cc2)cc1`: in data set [1] (read-out: logP), the logP is 4.14. Moreover, the logD in data set [2] (read-out: logD) is 3.79.

Take `Cc1ccc(-n2nc(C(C)(C)C)cc2NC(=O)Nc2ccc(-c3nncn3C)cc2)cc1`: the logP in data set [1] (read-out: logP) amounted to 3.34. For the same compound, the logD in data set [2] (read-out: logD) was found to be 3.21.

As to `Cc1ccc(-n2nc(C(C)(C)C)cc2NC(=O)Nc2ccc(-c3cccnc3)cc2)cc1`, in data set [1] (read-out: logP), the logP is 4.84. The logD in data set [2] (read-out: logD) turned out to be 4.25.

With `Cc1ccc(-n2nc(C(C)(C)C)cc2NC(=O)Nc2ccc(-c3ccc(N)nc3)cc2)cc1`, the logP in data set [1] (read-out: logP) was 5.13. In addition, in data set [2] (read-out: logD), the logD came out at 3.88.

In the case of `Cc1ccc(-n2nc(C(C)(C)C)cc2NC(=O)Nc2ccc(-c3ccncc3)cc2)cc1`, the logP in data set [1] (read-out: logP) is over 5. Further, the logD in data set [2] (read-out: logD) is 3.58.

For the compound `COc1cc(OC)nc(-c2ccc(NC(=O)Nc3cc(C(C)(C)C)nn3-c3ccc(C)cc3)cc2)n1`, the logP in data set [1] (read-out: logP) is over 5.4. For the same compound, the logD in data set [2] (read-out: logD) stood at 3.94.

Consider `COc1ccc(-c2ccc(NC(=O)Nc3cc(C(C)(C)C)nn3-c3ccc(C)cc3)cc2)cn1`, for which, in data set [1] (read-out: logP), the logP came out at 4.25. Besides, the logD in data set [2] (read-out: logD) was 4.02.

In the case of `Cc1ccc(-n2nc(C(C)(C)C)cc2NC(=O)Nc2ccc(-c3ccc(OCc4ccccc4)nc3)cc2)cc1`, the logP in data set [1] (read-out: logP) is over 5.4. Moreover, the logD in data set [2] (read-out: logD) was 3.94.
